Data on two substances can be found in paper PMC5121526, “Chemerin Elicits Potent Constrictor Actions via Chemokine‐Like Receptor 1 (CMKLR1), not G‐Protein‐Coupled Receptor 1 (GPR1), in Human and Rat Vasculature” (Journal of the American Heart Association: Cardiovascular …, 2016).

Holding throughout (assay type): cell-based
In assay [1] the target is T1, human CMKLR1 (Homo sapiens, UniProt Q99788).
T1 construct: host or cells: CHO-K1
T1 sequence (Q99788 1-373): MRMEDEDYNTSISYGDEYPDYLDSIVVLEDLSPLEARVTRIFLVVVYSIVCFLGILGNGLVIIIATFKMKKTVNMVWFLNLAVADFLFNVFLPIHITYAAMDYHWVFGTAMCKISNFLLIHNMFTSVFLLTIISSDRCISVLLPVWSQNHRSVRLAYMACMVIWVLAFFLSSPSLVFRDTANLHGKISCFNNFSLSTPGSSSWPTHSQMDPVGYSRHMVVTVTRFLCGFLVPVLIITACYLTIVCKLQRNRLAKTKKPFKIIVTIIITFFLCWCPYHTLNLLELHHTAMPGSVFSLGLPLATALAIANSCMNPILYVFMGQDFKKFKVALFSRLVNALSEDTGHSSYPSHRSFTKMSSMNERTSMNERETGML
Kind of assay: β‐Arrestin recruitment at CMKLR1. As for the experimental part: (§1) β‐Arrestin recruitment (CMKLR1 and GPR1) and cAMP assays (CMKLR1; DiscoverX, Fremont, CA) were carried out with CHO‐K1 cells expressing either human CMKLR1 or GPR1, according to the manufacturer's instructions. […] Data were subsequently normalized to the maximum response to C13 used as the reference agonists in each assay.

Assay [2] deals with T1, human CMKLR1. Kind of assay: cAMP inhibition at CMKLR1. To be noted: inhibition of forskolin‐evoked cAMP accumulation, CHO‐K1 cells, n: Chemerin 3, C9 4, C13 3, mean±SEM. The method, then: as §1
Background: Changes in cAMP serve as a functional read-out for many G protein-coupled receptors.

The target in another assay is T2, human GPR1 (Homo sapiens, UniProt P46091).
T2 construct: host or cells: CHO-K1
T2 sequence (P46091 1-355): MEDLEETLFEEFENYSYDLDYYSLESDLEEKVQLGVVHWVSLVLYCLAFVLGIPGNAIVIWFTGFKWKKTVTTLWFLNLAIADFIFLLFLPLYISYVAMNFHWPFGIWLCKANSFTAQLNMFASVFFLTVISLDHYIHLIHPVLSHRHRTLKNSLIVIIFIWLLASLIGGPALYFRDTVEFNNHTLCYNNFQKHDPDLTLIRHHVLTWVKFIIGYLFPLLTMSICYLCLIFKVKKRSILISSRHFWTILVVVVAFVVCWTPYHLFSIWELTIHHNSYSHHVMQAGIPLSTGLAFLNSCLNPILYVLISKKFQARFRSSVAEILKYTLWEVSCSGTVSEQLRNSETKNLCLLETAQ
The assay can be described thus: β‐Arrestin recruitment at GPR1. As for the experimental part: as §1
A general note: Arrestin recruitment assays detect the binding of arrestin to an activated receptor.

Ends that are not written are not given here.

On to “Chemerin: Human recombinant chemerin(21–157) purchased from R&D Systems”, for which the pD2 with human CMKLR1 [1] (β‐arrestin recruitment, CHO‐K1 cells, CMKLR1, n: Chemerin 3, C9 3, C13 6, mean±SEM) turned out to be 9.37±0.05; in the assay with human CMKLR1 [2], 8.45±0.10; with human GPR1 (β‐arrestin recruitment, CHO‐K1 cells, GPR1, n: Chemerin 3, C9 7, C13 9, mean±SEM), 9.05±0.09.

Broadly, the Emax is the size of the effect at its maximum, as opposed to the concentration needed. For PHSFYFPGQFAFS [C13], the EC50 at human CMKLR1 [1] was 70.8 nM; at human CMKLR1 [2] (read-out: pD2 (converted)), 0.759 nM; at human GPR1, 2.24 nM. In addition, the maximal effect (Emax) at human CMKLR1 [1] turned out to be 94 ± 2%; on human GPR1 it was 97 ± 3%.
